Assay results as given in patent US20240150356A1, “Pyrimidine amide compounds and use thereof” (ALPHALA CO., LTD., priority 2019, published 2024).
Like-named read-outs stand apart in the source and are kept apart here.

Tested on: Hep3B cells (hepatocellular carcinoma cell line)
Test: In vitro MTS cell viability assay (NCI-60 methodology), Hep3B
Format: cell-based
Settings: Homo sapiens, 48 h, 2 days drug incubation, 50% reduction vs time zero, read-out: Hep3B LC50
Method in brief: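 Following NCI-60 method, MTS viability of Hep3B measured 24 h after plating (time zero) and after a further 2-day exposure to five concentrations (2-fold series). LC50 defined where [(Ti−Tz)/Tz]×100 = −50.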

Question: How did the LC50 (Table 3, MTS) turn out when `Cc1nn(C)c2c(NC(=O)c3ccc([N+](=O)[O-])s3)nc(-c3ccc(OC(F)(F)F)cc3)nc12` [Compound 3-3, N-(1,3-dimethyl-5-(4-(trifluoromethoxy)phenyl)-1H-pyrazolo[4,3-d]pyrimidin-7-yl)-5-nitrothiophene-2-carboxamide] was run?
Answer: 1920 nM

Question: For `COc1ccc(-n2ncc3c(NC(=O)c4ccc([N+](=O)[O-])s4)nc(-c4ccc(F)c(F)c4)nc32)cc1` [Compound 6-23, N-(6-(3,4-difluorophenyl)-1-(4-methoxyphenyl)-1H-pyrazolo[3,4-d]pyrimidin-4-yl)-5-nitrothiophene-2-carboxamide], which LC50 (Table 6, MTS) is on record?
Answer: 170 nM

Question: Which LC50 (Table 6, MTS) does the source give for `CC(C)(C)c1ccc(-n2ncc3c(NC(=O)c4ccc([N+](=O)[O-])s4)nc(-n4cc(C(F)(F)F)cn4)nc32)cc1` [Compound 6-78, N-(1-(4-(ter-butyl)phenyl)-6-(4-(trifluoromethyl)-1H-pyrazol-1-yl)-1H-pyrazolo[3,4-d]pyrimidin-4-yl)-5-nitrothiophene-2-carboxamide] here?
Answer: 570 nM

Question: For `COCCOc1ccc(-c2nc(NC(=O)c3ccc([N+](=O)[O-])s3)c3cnn(C4CCCCC4)c3n2)cc1` [Compound 10-50, N-(1-cyclohexyl-6-(4-(2-methoxyethoxy)phenyl)-1H-pyrazolo[3,4-d]pyrimidin-4-yl)-5-nitrothiophene-2-carboxamide], which LC50 (Table 10, MTS) is on record?
Answer: 2640 nM

Question: Which LC50 (Table 5, MTS) does the source give for `O=C(Nc1nc(-n2ccc(C(F)(F)F)n2)nc2c1cnn2-c1ccccc1)c1ccc([N+](=O)[O-])s1` [Compound 5-22, 5-nitro-N-(1-phenyl-6-(3-(trifluoromethyl)-1H-pyrazol-1-yl)-1H-pyrazolo[3,4-d]pyrimidin-4-yl)thiophene-2-carboxamide] here?
Answer: 380 nM

Question: For `N#C[C@@H]1CCN(c2nc(NC(=O)c3ccc([N+](=O)[O-])s3)c3cnn(-c4ccccc4)c3n2)C1` [Compound 5-5, (R)—N-(6-(3-cyanopyrrolidin-1-yl)-1-phenyl-1H-pyrazolo[3,4-d]pyrimidin-4-yl)-5-nitrothiophene-2-carboxamide], which LC50 (Table 5, MTS) is on record?
Answer: 500 nM

Question: `Cc1ccc(-c2nc(NC(=O)c3ccc([N+](=O)[O-])s3)c3cnn(-c4ccccc4)c3n2)cn1` [Compound 5-34, N-(6-(6-methylpyridin-3-yl)-1-phenyl-1H-pyrazolo[3,4-d]pyrimidin-4-yl)-5-nitrothiophene-2-carboxamide] was tested. Which LC50 (Table 5, MTS) did it give?
Answer: 850 nM

Question: `O=C(Nc1nc(-c2ccc(C(F)(F)F)c(F)c2)nc2c1cnn2-c1ccccc1)c1ccc([N+](=O)[O-])s1` [Compound 5-52, N-(6-(3-fluoro-4-(trifluoromethyl)phenyl)-1-phenyl-1H-pyrazolo[3,4-d]pyrimidin-4-yl)-5-nitrothiophene-2-carboxamide] was tested. Which LC50 (Table 5, MTS) did it give?
Answer: > 1250 nM

Question: How did the LC50 (Table 5, MTS) turn out when `O=C(Nc1nc(NS(=O)(=O)c2ccc(Cl)cc2)nc2c1cnn2-c1ccccc1)c1ccc([N+](=O)[O-])s1` [Compound 5-9, N-(6-((4-chlorophenyl)sulfonamido)-1-phenyl-1H-pyrazolo[3,4-d]pyrimidin-4-yl)-5-nitrothiophene-2-carboxamide] was run?
Answer: > 6000 nM

Question: `O=C(Nc1nc(-c2cccc(C(F)(F)F)c2)nc2c1cnn2-c1ccccc1)c1ccc([N+](=O)[O-])s1` [Compound 5-38, 5-nitro-N-(1-phenyl-6-(3-(trifluoromethyl)phenyl)-1H-pyrazolo[3,4-d]pyrimidin-4-yl)thiophene-2-carboxamide] was tested. Which LC50 (Table 5, MTS) did it give?
Answer: 450 nM

Question: For `Cn1ncc2c(NC(=O)c3ccc([N+](=O)[O-])s3)nc(C#Cc3ccc(OC(F)(F)F)cc3)nc21` [Compound 1-14, N-(1-methyl-6-((4-(trifluoromethoxy)phenyl)ethynyl)-1H-pyrazolo[3,4,d]pyrimidin-4-yl)-5-nitrothiophene-2-carboxamide], which LC50 (Table 1, MTS) is on record?
Answer: 1670 nM

Question: With `Cn1ncc2c(NC(=O)c3ccc([N+](=O)[O-])s3)nc(-c3ccc(OC(C)(C)C)cc3)nc21` [Compound 1-7, N-(6-(4-(tert-butoxy)phenyl)-1-methyl-1H-pyrazolo[3,4-d]pyrimidin-4-yl)-5-nitrothiophene-2-carboxamide] as the molecule, how does the LC50 (Table 1, MTS) read?
Answer: 1510 nM
